# The supplement of paper PMC10307832
# Experiments:
# Assay in all cases: relative viability (nuclei count vs DMSO), 5 days (fraction); higher = more cells survive
# [1] = compound: COc1cc([C@@H]2c3cc4c(cc3[C@@H](O[C@@H]3O[C@@H]5CO[C@@H](C)O[C@H]5[C@H](O)[C@H]3O)[C@H]3COC(=O)[C@H]23)OCO4)cc(OC)c1O [Etoposide] + N=C(N)NC(=N)NCCc1ccccc1 [Phenformin] (partner 250 µM)
# Summary of the method: (§1)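 After 5 days of treatment, lung cancer cells in 1536-well plates were fixed and stained in a single step (final 0.05% Triton X-100, 1% formaldehyde, 1 ug/ml Hoechst) and their nuclei counted on 4× images. Treatment had been applied by pin tool the day after seeding as one drug alone or as a fixed anchor-drug dose with five library-drug doses (not always all listed) in √10 steps. Relative viability is the nuclei count of treated wells divided by that of vehicle wells, and values are medians of duplicate plates.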
# [2] = compound: CC1=C(N=C(N=C1N)[C@H](CC(=O)N)NC[C@@H](C(=O)N)N)C(=O)N[C@@H]([C@H](C2=CN=CN2)OC3C(C(C(C(O3)CO)O)O)OC4C(C(C(C(O4)CO)O)OC(=O)N)O)C(=O)N[C@H](C)[C@H]([C@H](C)C(=O)N[C@@H]([C@@H](C)O)C(=O)NCCC5=NC(=CS5)C6=NC(=CS6)C(=O)NCCC[S+](C)C)O [Bleomycin] + NC(=O)Nc1cc(-c2cccc(F)c2)sc1C(=O)N[C@H]1CCCNC1 [AZD7762] (partner 0.2 µM); details: main component drawn
# Summary of the method: as §1
# [3] = compound: CC1=C(N=C(N=C1N)[C@H](CC(=O)N)NC[C@@H](C(=O)N)N)C(=O)N[C@@H]([C@H](C2=CN=CN2)OC3C(C(C(C(O3)CO)O)O)OC4C(C(C(C(O4)CO)O)OC(=O)N)O)C(=O)N[C@H](C)[C@H]([C@H](C)C(=O)N[C@@H]([C@@H](C)O)C(=O)NCCC5=NC(=CS5)C6=NC(=CS6)C(=O)NCCC[S+](C)C)O [Bleomycin] + CC(=O)Nc1cccc(-n2c(=O)n(C3CC3)c(=O)c3c(Nc4ccc(I)cc4F)n(C)c(=O)c(C)c32)c1 [Trametinib] (partner 0.02 µM); details: main component drawn
# Summary of the method: as §1
# [4] = compound: CC1=C(N=C(N=C1N)[C@H](CC(=O)N)NC[C@@H](C(=O)N)N)C(=O)N[C@@H]([C@H](C2=CN=CN2)OC3C(C(C(C(O3)CO)O)O)OC4C(C(C(C(O4)CO)O)OC(=O)N)O)C(=O)N[C@H](C)[C@H]([C@H](C)C(=O)N[C@@H]([C@@H](C)O)C(=O)NCCC5=NC(=CS5)C6=NC(=CS6)C(=O)NCCC[S+](C)C)O [Bleomycin] + CS(=O)(=O)N1CCN(Cc2cc3nc(-c4cccc5[nH]ncc45)nc(N4CCOCC4)c3s2)CC1 [Pictilisib] (partner 1 µM); details: main component drawn
# Summary of the method: as §1
Cell Line,relative viability ([1]; first compound 0.01 µM),relative viability ([1]; first compound 0.03162 µM),relative viability ([1]; first compound 0.1 µM),relative viability ([1]; first compound 0.3162 µM),relative viability ([1]; first compound 1 µM),relative viability ([2]; first compound 0.01 µM),relative viability ([2]; first compound 0.03162 µM),relative viability ([2]; first compound 0.1 µM),relative viability ([2]; first compound 0.3162 µM),relative viability ([2]; first compound 1 µM),relative viability ([3]; first compound 0.01 µM),relative viability ([3]; first compound 0.03162 µM),relative viability ([3]; first compound 0.1 µM),relative viability ([3]; first compound 0.3162 µM),relative viability ([3]; first compound 1 µM),relative viability ([4]; first compound 0.01 µM),relative viability ([4]; first compound 0.03162 µM),relative viability ([4]; first compound 0.1 µM),relative viability ([4]; first compound 0.3162 µM),relative viability ([4]; first compound 1 µM)
HARA,0.507,0.407,0.504,0.366,0.178,0.281,0.299,0.306,0.226,0.244,0.899,0.325,0.448,0.347,0.328,0.333,0.557,0.428,0.27,0.184
IA-LM,,,,,,,,,,,,,,,,0.331,0.29,0.356,0.211,0.215
COR-L23,0.394,0.479,0.434,0.287,0.155,,,,,,0.432,0.518,0.303,0.133,0.129,0.705,0.7,0.433,0.129,0.0958
NCI-H2023,0.403,0.385,0.307,0.198,0.107,,,,,,0.277,0.383,0.363,0.148,0.129,0.225,0.193,0.158,0.124,0.0805
COR-L 105,0.664,0.53,0.405,0.444,0.39,,,,,,0.459,0.417,0.419,0.369,0.332,0.412,0.43,0.406,0.278,0.276
SK-LU-1,0.476,0.605,0.322,0.224,0.183,,,,,,0.415,0.487,0.464,0.43,0.392,0.434,0.638,0.474,0.352,0.282
NCI-H661,0.283,0.289,0.267,0.249,0.208,,,,,,0.546,0.484,0.477,0.392,0.292,0.523,0.387,0.263,0.25,0.245
NCI-H2228,0.39,0.348,0.224,0.176,0.102,,,,,,0.537,0.468,0.431,0.269,0.26,0.553,0.356,0.386,0.361,0.328
SW 1573,0.341,0.36,0.255,0.183,0.142,,,,,,0.47,0.424,0.322,0.191,0.141,0.43,0.361,0.459,0.254,0.174
NCI-H522,0.665,0.623,0.535,0.595,0.614,0.76,0.796,0.65,0.519,0.468,0.776,0.705,0.763,0.433,0.379,,,,,
NCI-H1299,,,,,,,,,,,,,,,,0.65,0.571,0.367,0.149,0.154
NCI-H1650,0.421,0.31,0.374,0.194,0.141,,,,,,0.325,0.257,0.244,0.138,0.135,0.408,0.318,0.255,0.139,0.125
NCI-H2009,0.492,0.505,0.492,0.416,0.342,,,,,,0.296,0.275,0.276,0.258,0.224,0.768,0.672,0.749,0.324,0.405
NCI-H1648,,,,,,0.623,0.716,0.512,0.373,0.375,0.388,0.4,0.416,0.269,0.295,,,,,
SK-MES-1,0.654,0.683,0.582,0.402,0.248,,,,,,0.501,0.532,0.527,0.28,0.219,0.432,0.274,0.307,0.201,0.116
NCI-H2342,0.646,0.643,0.425,0.351,0.284,0.5,0.611,0.495,0.589,0.42,0.896,0.737,0.758,0.577,0.576,,,,,
SW 900,0.359,0.618,0.459,0.322,0.16,0.525,0.591,0.392,0.264,0.24,0.858,0.561,0.453,0.259,0.197,,,,,
A549,0.2,0.121,0.116,0.0719,0.0368,,,,,,,,,,,0.4,0.389,0.323,0.0899,0.0479
NCI-H520,0.487,0.585,,0.619,0.502,,,,,,0.673,0.608,0.814,0.547,0.394,0.298,0.301,0.287,0.256,0.238
NCI-H1563,0.628,0.7,0.609,0.55,0.476,,,,,,,,,,,0.608,0.698,0.623,0.574,0.533
ABC-1,0.239,0.244,0.241,0.201,0.171,0.748,1,0.845,0.573,0.34,,,,,,0.68,0.689,0.719,0.333,0.286
